Experimental data: patent US5079257A, “Indoloquinone compounds” (priority 1986, dated 1992)
In brackets after ≈: the same amount, converted by molar mass. Read-outs that look alike come from different tables or passages of the source.

Tests used:
P 388 tumour cells = assay: In vivo P388 experiments (Brussels); set-up: species or system mice; conditions: for MAX T/C: days 1 to 5
Procedure: These experiments were carried out at the Institute Jules Bordet, Brussels, on CDF, female mice. The mice were inoculated intraperitoneally (IP) with 1×10^6 P 388 tumour cells. After 24 hours, the compounds were administrated as suspensions in "Tween-80" or using saline as vehicle. Six mice were used at each dose of the compound, given on days 1 to 5 and eighteen control mice were injected with saline.

L1210 cells [1] = assay: L1210 activity in clonogenic assay (TNO Rijswijk); assay type: cell-based; conditions: Mus musculus, L1210, 192 h, read-out: ID-50 L1210, clonogenic assay
Text: The indoloquinones II (formula II) have been tested in respect of their cytotoxic activity against L1210 cells and R-1 cells (Rhabdomyosarcoma Cells) in a bioliquid assay at the department of oncology of the Free University of Amsterdam (Table I). In addition to this seven compounds (E.O. 1, E.O. 2, E.O. 4, E.O. 7, E.O. 9, E.O. 16 and E.O. 17) have been tested on L1210 activity in a clonogenic assay at TNO, Rijswijk. Further, the lowest active doses of the compounds E.O. 1, E.O. 2, E.O. 4 and E.O. 9 have been determined at TNO Rijswijk, according to the method described by Lamberts et al. [Oncology, 40, 301 (1983)]. (Table II). Eight indoloquinones (E.O. 1, E.O. 2, E.O. 4, E.O. 4A, E.O. 8, E.O. 9, E.O. 33 and E.O. 35) have been tested in a panel of five human tumour lines (TNO Rijswijk; Table III). From the latter group three indoloquinones (E.O. 1, E.O. 4 and E.O. 9) have been selected for a cytotoxicity study, involving five slowly growing human tumour lines (University of Freiburg; Table IV).
The L1210 clonogenic assay used was an improved variant of the method described earlier by H. MARTIN et al. [Cancer Chemother., Rep., 51 451 (1967)] and L. M. van Putten et al. [Cancer Treat. Rep., 60, 373 (1976)] for the growth into colonies of L1210 cells in a soft agar medium. From a suspension culture ~100 L1210 Cells (0.1 ml) were plated into […] culture dishes (Falcon), containing 1 ml of soft agar growth medium and the compound to be tested in appropriate concentrations. The soft agar growth medium consisted of Dulbecco medium supplemented with 15.8% horse serum, 60 μmol 2-mercapto-ethanol, 20 mg/ml L-asparagine and 0.3% bacto agar (Difco).
The culture dishes were incubated at 37° C. in an atmosphere of 1% CO2 in humidified air for 8 days. After this period of continuous drug exposure, colonies were counted and dose-effect curves were made.

[2] = Half-wave reduction potentials / polarography (University of Utrecht); assay type: physicochemical
Procedure, shortened: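 Polarographic half-wave potentials (E1/2) measured; only the first, quinone, reduction potential is reported.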

[3] = tested on: Mammary (breast) tumour line; assay: Colony inhibition in vitro, continuous drug exposure (Freiburg); assay type: cell-based; conditions: Homo sapiens, read-out: colony formation treated/control (T/C), Mammary; for activity at 1 µg/mL: 1.0 μg/ml
Procedure: (§1) Three indoloquinones were tested at the University of Freiburg with respect to their in vitro inhibition of colony formation of the following five human tumour cell lines: lung-NSCLC, breast, renal and two colon lines.

Colon 1 tumour line = assay: as above; assay type: cell-based; conditions: Homo sapiens, read-out: colony formation treated/control (T/C), Colon 1; for activity at 1 µg/mL: 1.0 μg/ml
Procedure: as §1

Colon 2 tumour line = assay: as above; assay type: cell-based; conditions: Homo sapiens, read-out: colony formation treated/control (T/C), Colon 2; for activity at 1 µg/mL: 1.0 μg/ml
Procedure: as §1

Renal tumour line = assay: as above; assay type: cell-based; conditions: Homo sapiens, read-out: colony formation treated/control (T/C), Renal; for activity at 1 µg/mL: 1.0 μg/ml
Procedure: as §1

L1210 cells [4] = assay: L1210 activity (bioliquid assay), cytotoxicity; assay type: cell-based; conditions: Mus musculus
Procedure, shortened: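 Suspension culture in RPMI with 15% FCS and 2-mercaptoethanol (60 μmol). Continuous compound exposure for 48 hours at 37° C under 5% CO2 in humidified air. Cell numbers then counted on an electronic microcell counter.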

Renal line (RXF 423) = assay: Human tumour xenograft in nude mice: renal; assay type: in vivo; conditions: i.v. days 22 and 29, 4 and 6 mg/kg
Text: Based on the results obtained during the in vitro experiments indoloquinone E.O. 9 was selected for an extended in vivo study. The activity of this compound has been determined in four human tumour xenografts transplanted in nude mice.
The xenograft experiments have been carried by Dr. H. H. Fiebig of the University of Freiburg [Lung-NSCLC (LXGF) line, Renal line, Breast line; See: H. H. Fiebig et al., Behring Inst. Mitt., 74 343] and by Dr. E. Boven of the Free University Hospital Amsterdam [Ovarian (MRI-H-207) line; See: E. Boven et al., Cancer Res., 45, 86 (1985) and E. Boven et al., Eur. J. Clin. Oncol., 21, 1253 (1985)].
The tumour was transplanted s.c. and E.O. 9 was administrated i.v. on days 22 and 29 after transplantation at a dose of 4 and 6 mg/kg.

[5] = 8 days continuous exposure, TNO Rijswijk
[6] = L1210, Table I, bioliquid assay, 48 hours, read-out: ID-50 L1210

Compound	IC50 (L1210 cells [1]; [5])	half-wave potential E1.2, wave I ([2]; pH = 8 vs Ag/AgCl)	activity at 0.01 µg/mL ([3]; 0.01 μg/ml)	activity at 0.1 µg/mL ([3]; 0.1 μg/ml)	activity at 1 µg/mL [3]	activity at 0.01 µg/mL (Colon 1 tumour line; 0.01 μg/ml)	activity at 0.1 µg/mL (Colon 1 tumour line; 0.1 μg/ml)	activity at 1 µg/mL (Colon 1 tumour line)	activity at 0.01 µg/mL (Colon 2 tumour line; 0.01 μg/ml)	activity at 0.1 µg/mL (Colon 2 tumour line; 0.1 μg/ml)	activity at 1 µg/mL (Colon 2 tumour line)	activity at 0.1 µg/mL (Renal tumour line; 0.1 μg/ml)	activity at 1 µg/mL (Renal tumour line)	IC50 (L1210 cells [4]; [6])	MAX T/C (P 388 tumour cells; 10 mg/kg)	further results
COC1=CC(=O)c2c(c(COC(C)=O)c(/C=C/COC(C)=O)n2C)C1=O [E.O. 1, 3-Acetoxymethyl-5-methoxy-1-methyl-2-[1H-indole-4,7-dione]prop-β-en-α-yl acetate]	2.5 µg/mL	-367 mV	99%	0%	0%	108%	37%	21%	71%	24%	3%	68%	0%	2.3 µg/mL		MAX T/C (P 388 tumour cells; 75 mg/kg): 105%; direct current polarogram ([2]; DC-polarography): two or more reduction waves; half-wave potential E1.2, wave III ([2]; pH = 8 vs Ag/AgCl): -435 mV; half-wave potential E1.2, wave IV ([2]; pH = 8 vs Ag/AgCl): -775 mV
COC(=O)OC/C=C/c1c(COC(=O)OC)c2c(n1C)C(=O)C=C(OC)C2=O [E.O. 2, Methyl 5-methoxy-3-methoxycarbonyloxymethyl-1-methyl-2-[1H-indole-4,7 dione]prop-β-en-α-yl carbonate]	3.7 µg/mL (≈ 9.41 µM)													0.5 µg/mL (≈ 1.27 µM)	120%	
Cn1c(/C=C/CO)c(CO)c2c1C(=O)C=C(N1CC1)C2=O [E.O. 9, 5-Aziridino-3-hydroxymethyl-1-methyl-2-[1H-indole-4,7-dione]prop-β-en-α-ol]	0.8 µg/mL (≈ 2.77 µM)	-370 mV	38%	2%	0%	51%	47%	9%	136%	20%	1%	8%	0%			MAX T/C (P 388 tumour cells; 1.5 mg/kg): 106%; half-wave potential E1.2, wave II ([2]; pH = 8 vs Ag/AgCl): -785 mV; growth inhibition (Renal line (RXF 423)): No significant growth inhibition; activity at 0.01 µg/mL (Renal tumour line; 0.01 μg/ml): 123%; IC50 (L1210 cells [4]; L1210, 48 h, Table VIII, read-out: ID-50 L1210): 0.46 µg/mL (≈ 1.6 µM)
CC(=O)OC/C=C/c1c(COC(C)=O)c2c(n1C)C(=O)C=C(N1CC1)C2=O [E.O. 4, 3-Acetoxymethyl-5-aziridino-1-methyl-2-[1H-indole-4,7-dione]prop-β-en-α-yl acetate]															135%	T/C at the optimal dose (P 388 tumour cells; optimal dose): ~130%; IC50 (L1210 cells [1]): < 1 µg/mL; activity at 0.001 µg/mL [3]: 95%; activity at 0.01 µg/mL [3]: 46%; activity at 0.1 µg/mL [3]: 0%; activity at 0.001 µg/mL (Colon 1 tumour line): 51%; activity at 0.01 µg/mL (Colon 1 tumour line): 56%; activity at 0.1 µg/mL (Colon 1 tumour line): 56%; activity at 0.001 µg/mL (Colon 2 tumour line): 86%; activity at 0.01 µg/mL (Colon 2 tumour line): 70%; activity at 0.1 µg/mL (Colon 2 tumour line): 11%; activity at 0.001 µg/mL (Renal tumour line): 88%; activity at 0.01 µg/mL (Renal tumour line): 88%; activity at 0.1 µg/mL (Renal tumour line): 41%; IC50 (L1210 cells [4]; L1210, 48 h, read-out: ID-50 L1210, Table VIII): 1.6 µg/mL
